ChEMBL document CHEMBL5154739, “Structure-activity relationships of N-terminal variants of peptidomimetic tissue transglutaminase inhibitors” (Eur J Med Chem, 2022)
Activity calls are given as the source filed them. No cut-off for these calls is given here.

Experiments:
[1] = target: T1, Protein-glutamine gamma-glutamyltransferase (Homo sapiens) (UniProt P21980); assay: Inhibition of TG2 (unknown origin) using Cbz-Glu(gamma-p-nitrophenyl ester)Gly (AL5) as substrate assessed as Kinact/Ki ratio and measured by colorimetric assay
T1 sequence (whole entry): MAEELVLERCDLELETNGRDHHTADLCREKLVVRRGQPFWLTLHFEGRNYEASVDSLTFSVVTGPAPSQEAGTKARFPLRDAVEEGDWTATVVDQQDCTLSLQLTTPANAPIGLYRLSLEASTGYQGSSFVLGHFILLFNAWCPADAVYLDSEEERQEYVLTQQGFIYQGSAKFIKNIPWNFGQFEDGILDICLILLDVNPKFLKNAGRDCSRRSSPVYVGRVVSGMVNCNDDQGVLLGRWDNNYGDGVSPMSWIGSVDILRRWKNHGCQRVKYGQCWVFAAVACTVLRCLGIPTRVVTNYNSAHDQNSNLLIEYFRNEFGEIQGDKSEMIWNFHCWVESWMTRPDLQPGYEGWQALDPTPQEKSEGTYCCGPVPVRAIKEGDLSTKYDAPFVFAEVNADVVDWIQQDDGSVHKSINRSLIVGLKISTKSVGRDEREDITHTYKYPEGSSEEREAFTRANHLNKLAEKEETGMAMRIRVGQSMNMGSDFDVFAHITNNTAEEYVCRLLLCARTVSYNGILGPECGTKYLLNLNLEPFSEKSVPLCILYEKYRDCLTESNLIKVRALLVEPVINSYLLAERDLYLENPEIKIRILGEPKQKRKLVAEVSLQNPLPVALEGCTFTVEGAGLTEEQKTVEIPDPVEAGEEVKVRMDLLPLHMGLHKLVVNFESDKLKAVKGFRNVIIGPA

[2] = target: T1, Protein-glutamine gamma-glutamyltransferase (Homo sapiens); assay: (§1) Inhibition of TG2 (unknown origin) using Cbz-Glu(gamma-p-nitrophenyl ester)Gly (AL5) as substrate and measured by colorimetric assay
P-gp [3] = assay: Substrate activity at P-gp in dog MDCK cells assessed as efflux ratio; type: ADME, cell-based, Canis lupus familiaris; conditions: MDCK-MDR1
MDR1 (P-gp) [4] = assay: Apparent permeability from apical to basolateral side in dog MDCK-MDR1 cells; type: ADME, cell-based, Canis lupus familiaris
P-gp [5] = assay: Substrate activity at P-gp in dog MDCK cells assessed as apparent permeability across basolateral to apical membrane; type: ADME, cell-based, Canis lupus familiaris; conditions: MDCK-MDR1
[6] = Half-life in plasma (unknown origin); type: ADME, cell-free
[7] = Plasma protein binding (unknown origin) assessed as drug recovery; type: ADME, cell-free; conditions: read-out: Drug recovery
P-gp [8] = assay: Substrate activity at P-gp in dog MDCK cells assessed as apparent permeability across apical to basolateral membrane; type: ADME, cell-based, Canis lupus familiaris; conditions: MDCK-MDR1
[9] = Plasma protein binding (unknown origin); type: ADME, cell-free; conditions: read-out: PPB (converted)
MDR1 (P-gp) [10] = assay: Apparent permeability from basolateral to apical side in dog MDCK-MDR1 cells; type: ADME, cell-based, Canis lupus familiaris
MDR1 (P-gp) [11] = assay: Efflux ratio of apparent permeability in dog MDCK-MDR1 cells; type: ADME, cell-based, Canis lupus familiaris
[12] = target: T1, Protein-glutamine gamma-glutamyltransferase (Homo sapiens); assay: Inhibition of GTP binding to TG2 (unknown origin) measured by GTP Gamma-S-FL BODIPY assay
[13] = Anti-invasion activity against human SCC-13 cells assessed as inhibition of invasion incubated for 18 hrs by matrigel trans well plate assay; type: functional, cell-based; conditions: SCC-13, 18 h
[14] = target: T2, Protein-glutamine gamma-glutamyltransferase (Homo sapiens, UniProt P21980); assay: as §1
T2 sequence (P21980 whole entry): T1 sequence (whole entry)

SMILES | Ratio [1] | Kinact [2] | other results
C=CC(=O)NCCCC[C@H](NC(=O)C(C)(C)C)C(=O)N1CCN(C(=O)c2cccc3ccccc23)CC1 | 56.2 10^3/M/min | 0.49 min⁻¹ | –
C=CC(=O)NCCCC[C@H](NS(=O)(=O)c1ccccc1)C(=O)N1CCN(C(=O)c2cccc3ccccc23)CC1 | 7.1 10^3/M/min | 0.63 min⁻¹ | –
C=CC(=O)NCCCC[C@H](NC(=O)Cc1ccc(Cl)c(Cl)c1)C(=O)N1CCN(C(=O)c2cccc3ccccc23)CC1 | 131 10^3/M/min | 0.08 min⁻¹ | –
C=CC(=O)NCCCC[C@H](NC(=O)Cc1ccccc1C)C(=O)N1CCN(C(=O)c2cccc3ccccc23)CC1 | 352 10^3/M/min | 2.1 min⁻¹ | efflux ratio (P-gp [3]): 0.93; Papp A→B (MDR1 (P-gp) [4]): 0.32 ×10⁻⁶ cm/s; Papp B→A (P-gp [5]): 3 ×10⁻⁶ cm/s; half-life [6]: 9.47 h; recovery [7]: 93%; Papp A→B (P-gp [8]): 3.2 ×10⁻⁶ cm/s; fraction unbound [9]: 0.15; Papp B→A (MDR1 (P-gp) [10]): 16.5 ×10⁻⁶ cm/s; efflux ratio (MDR1 (P-gp) [11]): 51.6
C=CC(=O)NCCCC[C@H](NC(=O)c1ccccc1F)C(=O)N1CCN(C(=O)c2cccc3ccccc23)CC1 | 39.4 10^3/M/min | 0.39 min⁻¹ | –
C=CC(=O)NCCCC[C@H](NC(=O)c1cccnc1)C(=O)N1CCN(C(=O)c2cccc3ccccc23)CC1 | 23.3 10^3/M/min | 0.59 min⁻¹ | –
C=CC(=O)NCCCC[C@H](NC(=O)C(C)C)C(=O)N1CCN(C(=O)c2cccc3ccccc23)CC1 | 65.1 10^3/M/min | 0.65 min⁻¹ | –
C=CC(=O)NCCCC[C@H](NC(=O)CC(C)C)C(=O)N1CCN(C(=O)c2cccc3ccccc23)CC1 | 66.7 10^3/M/min | 0.64 min⁻¹ | –
C=CC(=O)NCCCC[C@H](NC(C)=O)C(=O)N1CCN(C(=O)c2cccc3ccccc23)CC1 | 44.1 10^3/M/min | 1.45 min⁻¹ | –
C=CC(=O)NCCCC[C@H](NC(=O)Cc1ccccc1)C(=O)N1CCN(c2ccc([N+](=O)[O-])nc2)CC1 | 508 10^3/M/min | – | –
C=CC(=O)NCCCC[C@H](NS(=O)(=O)Cc1ccccc1)C(=O)N1CCN(C(=O)c2cccc3ccccc23)CC1 | 11.4 10^3/M/min | 0.53 min⁻¹ | –
C=CC(=O)NCCCC[C@H](NC(=O)Cc1ccccc1F)C(=O)N1CCN(C(=O)c2cccc3ccccc23)CC1 | 443 10^3/M/min | 0.46 min⁻¹ | efflux ratio (P-gp [3]): 1.3; Papp A→B (MDR1 (P-gp) [4]): 0.29 ×10⁻⁶ cm/s; inhibition [12]: Active; Papp B→A (P-gp [5]): 2.8 ×10⁻⁶ cm/s; EC50 [13]: 77 µM; half-life [6]: 17.9 h; recovery [7]: 86%; Papp A→B (P-gp [8]): 2.2 ×10⁻⁶ cm/s; fraction unbound [9]: 0.16; Papp B→A (MDR1 (P-gp) [10]): 18.2 ×10⁻⁶ cm/s; efflux ratio (MDR1 (P-gp) [11]): 61.7
C=CC(=O)NCCCC[C@H](NC(=O)Cc1ccccc1C(F)(F)F)C(=O)N1CCN(C(=O)c2cccc3ccccc23)CC1 | 100 10^3/M/min | 1 min⁻¹ | –
C=CC(=O)NCCCC[C@H](NC(=O)Cc1ccccc1Cl)C(=O)N1CCN(C(=O)c2cccc3ccccc23)CC1 | 295 10^3/M/min | 5.3 min⁻¹ | EC50 [13]: 92 µM
C=CC(=O)NCCCC[C@H](NC(=O)OCc1ccccc1)C(=O)N1CCN(C(=O)c2cccc3ccccc23)CC1 | 244 10^3/M/min | 1.2 min⁻¹ | Ki [14]: 4.8 µM
C=CC(=O)NCC(=O)N1CCN(S(=O)(=O)c2cccc3c(N(C)C)cccc23)CC1 | – | 0.387 min⁻¹ | Ki [14]: 1.31 µM
C=CC(=O)NCCCC[C@H](NC(=O)c1ccncc1)C(=O)N1CCN(C(=O)c2cccc3ccccc23)CC1 | 12.7 10^3/M/min | 0.24 min⁻¹ | –
C=CC(=O)NCCCC[C@H](NC(=O)c1ccc(F)cc1)C(=O)N1CCN(C(=O)c2cccc3ccccc23)CC1 | 55.4 10^3/M/min | 0.9 min⁻¹ | –
C=CC(=O)NCCCC[C@H](NC(=O)c1cccc(F)c1)C(=O)N1CCN(C(=O)c2cccc3ccccc23)CC1 | 47.8 10^3/M/min | 0.64 min⁻¹ | –
C=CC(=O)NCCCC[C@H](NC(=O)CCCc1ccccc1)C(=O)N1CCN(C(=O)c2cccc3ccccc23)CC1 | 39.6 10^3/M/min | 0.21 min⁻¹ | –
C=CC(=O)NCCCC[C@H](NC(=O)c1ccc2ccccc2c1)C(=O)N1CCN(C(=O)c2cccc3ccccc23)CC1 | 36.5 10^3/M/min | 0.29 min⁻¹ | –
C=CC(=O)NCCCC[C@H](NC(=O)Cc1cccc(Cl)c1Cl)C(=O)N1CCN(C(=O)c2cccc3ccccc23)CC1 | 170 10^3/M/min | 0.46 min⁻¹ | –

SMILES | Ratio [1] | Kinact [2] | other results
C=CC(=O)NCCCC[C@H](NC(=O)c1cccc2ccccc12)C(=O)N1CCN(C(=O)c2cccc3ccccc23)CC1 | 20.1 10^3/M/min | 0.41 min⁻¹ | –
C=CC(=O)NCCCC[C@H](NC(=O)OCc1ccccc1)C(=O)N1CCN(S(=O)(=O)c2cccc3c(N(C)C)cccc23)CC1 | 100 10^3/M/min | 0.38 min⁻¹ | EC50 [13]: 3.9 µM; Ki [14]: 3.8 µM
C=CC(=O)NCCCC[C@H](NC(=O)C1CC1)C(=O)N1CCN(C(=O)c2cccc3ccccc23)CC1 | 96.6 10^3/M/min | 1.02 min⁻¹ | –
C=CC(=O)NCCCC[C@H](NS(C)(=O)=O)C(=O)N1CCN(C(=O)c2cccc3ccccc23)CC1 | 22.6 10^3/M/min | 0.57 min⁻¹ | Ki [14]: 253 µM
C=CC(=O)NCCCC[C@H](NC(=O)CC)C(=O)N1CCN(C(=O)c2cccc3ccccc23)CC1 | 103 10^3/M/min | 0.53 min⁻¹ | –
C=CC(=O)NCCCC[C@H](NC(=O)C1C2CC3CC(C2)CC1C3)C(=O)N1CCN(C(=O)c2cccc3ccccc23)CC1 (stereo partly specified) | 14.9 10^3/M/min | 0.23 min⁻¹ | –
C=CC(=O)NCCCC[C@H](NC(=O)Cc1ccccc1)C(=O)N1CCN(c2cccnc2)CC1 | 391 10^3/M/min | – | –
C=CC(=O)NCCCC[C@H](NC(=O)Cc1ccccc1OC)C(=O)N1CCN(C(=O)c2cccc3ccccc23)CC1 | 299 10^3/M/min | 1.4 min⁻¹ | –
C=CC(=O)NCCCC[C@H](NC(=O)Cc1ccc(F)cc1)C(=O)N1CCN(C(=O)c2cccc3ccccc23)CC1 | 119 10^3/M/min | 0.49 min⁻¹ | –
C=CC(=O)NCCCC[C@H](NC(=O)OCc1ccccc1)C(=O)NCCOCCOCCNS(=O)(=O)c1cccc2c(N(C)C)cccc12 | 14 10^3/M/min | 0.41 min⁻¹ | EC50 [13]: 20 µM; Ki [14]: 29 µM
C=CC(=O)NCCCC[C@H](NC(=O)CC1CCCCC1)C(=O)N1CCN(C(=O)c2cccc3ccccc23)CC1 | 20.9 10^3/M/min | 0.26 min⁻¹ | –
C=CC(=O)NCCCC[C@H](NC(=O)Cc1cccc(F)c1)C(=O)N1CCN(C(=O)c2cccc3ccccc23)CC1 | 155 10^3/M/min | 0.75 min⁻¹ | –
C=CC(=O)NCCCC[C@H](NC(=O)Cc1cccc(Cl)c1)C(=O)N1CCN(C(=O)c2cccc3ccccc23)CC1 | 290 10^3/M/min | 0.3 min⁻¹ | –
C=CC(=O)NCCCC[C@H](NC(=O)C1CCCCC1)C(=O)N1CCN(C(=O)c2cccc3ccccc23)CC1 | 33.6 10^3/M/min | 0.33 min⁻¹ | –
C=CC(=O)NCCCC[C@H](NC(=O)Cc1ccc(F)cc1F)C(=O)N1CCN(C(=O)c2cccc3ccccc23)CC1 | 224 10^3/M/min | 0.62 min⁻¹ | –
C=CC(=O)NCCCC[C@H](NC(=O)c1cn(C)cn1)C(=O)N1CCN(C(=O)c2cccc3ccccc23)CC1 | 16 10^3/M/min | 0.46 min⁻¹ | Ki [14]: 28.7 µM
C=CC(=O)NCCCC[C@H](NC(=O)Cc1ccccc1Br)C(=O)N1CCN(C(=O)c2cccc3ccccc23)CC1 | 310 10^3/M/min | 3.1 min⁻¹ | EC50 [13]: 94 µM
C=CC(=O)NCCCC[C@H](NC(=O)c1cncn1C)C(=O)N1CCN(C(=O)c2cccc3ccccc23)CC1 | 12.6 10^3/M/min | 0.28 min⁻¹ | Ki [14]: 22.3 µM
C=CC(=O)NCCCC[C@H](NC(=O)c1ccccn1)C(=O)N1CCN(C(=O)c2cccc3ccccc23)CC1 | 9.6 10^3/M/min | 0.39 min⁻¹ | –
C=CC(=O)NCCCC[C@H](NC(=O)c1nccn1C)C(=O)N1CCN(C(=O)c2cccc3ccccc23)CC1 | 11.5 10^3/M/min | 0.18 min⁻¹ | –
C=CC(=O)NCCCC[C@H](NS(=O)(=O)CC)C(=O)N1CCN(C(=O)c2cccc3ccccc23)CC1 | 31.1 10^3/M/min | 0.83 min⁻¹ | –
C=CC(=O)NCCCC[C@H](NC(=O)CCc1ccccc1)C(=O)N1CCN(C(=O)c2cccc3ccccc23)CC1 | 214 10^3/M/min | 0.6 min⁻¹ | –
